According to patent US12421206B2, “Aryl-n-aryl derivatives for treating a RNA virus infection” (ABIVAX, priority 2018, dated 2025):

Tests used:
[1] = test system: DENV-2 strain 16681; assay: DENV-2 inhibition (cytopathic effect inhibition) using Viral ToxGlo assay in A549 cells; assay type: cell-based, Dengue 2 virus; settings: Dengue virus, DENV2, 120 h, compounds at 10 μM, MOI 0.5, 5 days p.i., read-out: % DENV-2 Inhibition Mean (n = 3)
Protocol: Protocol for Screening Antiviral Compounds for DENV-2 Inhibition and Cytotoxicity Using Viral ToxGlo Assay
A549 cells were maintained in Dulbecco's Modified Eagle Medium (DMEM) supplemented with 10% fetal bovine serum, 100 U/ml penicillin and 100 μg/ml streptomycin. For the purposes of the screening assay they were grown to 90% confluency, trypsinized and recovered. The trypsin was neutralised with cell culture media and cells were centrifuged at 150×g for 5 minutes before discarding the supernatant and resuspending cell pellet in assay media (DMEM supplemented with 2% fetal bovine serum and 100 U/ml penicillin and 100 μg/ml streptomycin). The cells were seeded into 96-well white clear-bottomed cell culture plates at a density of 1.0×10^4 cells/well in 50 μl. For the media/background control column assay media only was added. Cell plates were placed in a humid chamber and incubated overnight at 37° C./5% CO2. After overnight incubation cells were checked for confluency and healthy appearance.
Test compounds were prepared at a final concentration of 10 μM in a maximum DMSO concentration of 1% (final assay concentration maximal 0.1% DMSO) and added to the cell plates in volumes of 10 μl. For cell control and virus control wells the test article solvent only was added. As a positive inhibition control, 7-Deaza-2′-C-methyladenosine was added at 100 μM in 3 wells. Virus (DENV-2 strain 16681) or assay media for cytotoxicity test wells and media/cell control wells was added immediately after test articles at an MOI of 0.5, 40 for 96 well plates respectively. Virus suspension was prepared by thawing DENV-2 frozen stocks and diluting to the required concentration of plaque forming units in assay media.
Cell plates were further incubated inside a humid chamber for 5 days p.i at 37° C./5% CO2. After the incubation period cells were observed under the microscope to check for characteristic cytopathic effect in virus control wells and healthy cells in the cell control wells. After plates were adjusted to room temperature 20 μl Viral ToxGlo (Promega) was added to each well of the 96-well cell plates. Plates were incubated at room temperature for 5 minutes before measuring the luminescence on a spectrophotometer (Envision, PerkinElmer).
DENV-2 inhibition was calculated as percentage of cytopathic effect inhibition relative to the virus control and cytotoxicity as percentage of cell survival relative to cell control wells.

[2] = test system: RSV A2; assay: RSV inhibition (cytopathic effect inhibition) using Viral ToxGlo assay in HEp-2 cells; assay type: cell-based; settings: human respiratory syncytial virus, RSV A2, MOI 0.5, HEp-2 cells, 72 h p.i.
Protocol: Protocol for Screening Antiviral Compounds for RSV Inhibition and Cytotoxicity Using Viral ToxGlo Assay
HEp-2 cells were maintained in Eagle's minimum essential medium (EMEM) with Earle's BSS adjusted to contain 2 mM L-glutamine, 10% fetal bovine serum, 100 U/ml penicillin and 100 μg/ml streptomycin. For the purposes of the screening assay they were grown to 90% confluency, trypsinized and recovered. The trypsin was neutralised with cell culture media and cells were centrifuged at 150×g for 5 minutes before discarding the supernatant and resuspending cell pellet in assay media (EMEM with Earle's BSS adjusted to contain 2 mM L-glutamine, 2% fetal bovine serum and 100 U/ml penicillin and 100 μg/ml streptomycin). The cells were seeded into white clear-bottomed cell culture plates at a density of 1.5×10^4 cells/well in 50 μl and 4×10^3 cells/well in 25 μl for 96 well plates and 384 well plates respectively. For the media/background control column assay media only was added. Cell plates were placed in a humid chamber and incubated overnight at 37° C./5% CO2. After overnight incubation cells were checked for confluency and healthy appearance.
Test articles were made up at 10× test concentration in a maximum DMSO concentration of 10% (final assay concentration maximal 1% DMSO) and added to the cell plates in volumes of 10 μl for 96 well plates and 5 μl for 384 well plates. For cell control and virus control wells the test article solvent only was added. Virus or assay media for cytotoxicity test wells and media/cell control wells was added immediately after test articles at an MOI of 0.5, 40 or 20 μl for 96 and 384 well plates respectively. Virus suspension was prepared by thawing RSV A2 frozen stocks and diluting to the required concentration of plaque forming units in assay media on ice.
Cell plates were further incubated inside a humid chamber for 72 h p.i at 37° C./5% CO2. After the incubation period cells were observed under the microscope to check for characteristic cytopathic effect in virus control wells and healthy cells in the cell control wells. After plates were adjusted to room temperature 20/40 μl Viral ToxGlo (Promega) was added to each well of the 384/96 well cell plates. Plates were incubated at room temperature, protected from light on a plate rocker for 20 minutes before measuring the luminescence on a spectrophotometer (Biotek Synergy HTX).
RSV inhibition was calculated as percentage of cytopathic effect inhibition relative to the virus control and cytotoxicity as percentage of cell survival relative to cell control wells. This allowed EC50 values to be calculated for each test article where a virus inhibition or cytotoxic dose response was identified.

| SMILES | inhibition at 10 µM [1] [%] | EC50 [2] [nM] |
| --- | --- | --- |
| Cc1cc(OCc2cncnc2)ccc1Nc1cccc(OCCCC2CCCCC2)c1 [Compound 176, N-[3-(3-cyclohexylpropoxy)phenyl]-2-methyl-4-[(pyrimidin-5-yl)methoxy]aniline] | 85 |  |
| CC(C)CCNC(=O)c1cccc(Nc2ccc(OCc3ccccn3)cc2C2CC2)c1 [Compound 61, 3-((2-cyclopropyl-4-(pyridin-2-ylmethoxy)phenyl)amino)-N-isopentylbenzamide] | 55 | 54 |
| O=C(NCCC(F)(F)F)c1cccc(Nc2ccc(OCc3ccccn3)cc2)c1 [Compound 65, 3-((4-(pyridin-2-ylmethoxy)phenyl)amino)-N-(3,3,3-trifluoropropyl)benzamide] | 77 |  |
| O=C(NCCC1CCCC1)c1cccc(Nc2ccc(OCc3ccccc3)cc2C2CC2)c1 [Compound 82, N-(2-(cyclopentyl)ethyl)-3-((2-cyclopropyl-4-(phenylmethoxy)phenyl)amino)benzamide] | 64 | 4 |
| O=C(NCC1CCCC1)c1cccc(Nc2ccc(OCc3ccccn3)cc2)c1 [Compound 62, N-(cyclopentylmethyl)-3-((4-(pyridin-2-ylmethoxy)phenyl)amino)benzamide] | 55 |  |
| O=C(CCC1CCCCC1)Nc1cccc(Nc2ccc(OCc3ccccc3)cc2C(F)(F)F)c1 [Compound 98, N-(3-{[4-(benzyloxy)-2-(trifluoromethyl)phenyl]amino}phenyl)-3-cyclohexylpropanamide] | 60 | 12 |
| CN(c1cccc(OCCCC2CCCCC2)c1)c1ccc(OCc2ccccn2)cc1C1CC1 [Compound 156, N-[3-(3-cyclohexylpropoxy)phenyl]-2-cyclopropyl-N-methyl-4-[(pyridin-2-yl)methoxy]aniline] | 82 | 1060 |
| Cc1cc(OCc2ccccc2)ccc1Nc1cccc(OCC2CCCC2)c1 [Compound 175, 4-(benzyloxy)-N-[3-(cyclopentylmethoxy)phenyl]-2-methylaniline] | 60 |  |
| Cc1cc(OCc2ccc(F)cc2)ccc1Nc1cccc(NC(=O)CCC2CCCCC2)c1 [Compound 140, 3-cyclohexyl-N-[3-({4-[(4-fluorophenyl)methoxy]-2-methylphenyl}amino)phenyl]propanamide] | 74 | 349 |
| c1ccc(COc2ccc(Nc3cccc(OC4COC4)c3)c(C3CC3)c2)nc1 [Compound 151, 2-cyclopropyl-N-[3-(oxetan-3-yloxy)phenyl]-4-[(pyridin-2-yl)methoxy]aniline] | 63 | 671 |
| Cc1cc(OCc2ccccc2)ccc1Nc1cccc(NC(=O)CCC2CCCCC2)c1 [Compound 132, N-(3-{[4-(benzyloxy)-2-methylphenyl]amino}phenyl)-3-cyclohexylpropanamide] | 71 | 228 |
| O=C(CCC1CCCCC1)Nc1cccc(Nc2ccc(OCc3ccc(C(F)(F)F)cc3)cc2C2CC2)c1 [Compound 169, 3-cyclohexyl-N-{3-[(2-cyclopropyl-4-{[4-(trifluoromethyl)phenyl]methoxy}phenyl)amino]phenyl}propanamide] | 59 |  |
| O=C(CCC1CCCCC1)Nc1cccc(Nc2ccc(OCc3ccccc3)cc2F)c1 [Compound 150, N-(3-{[4-(benzyloxy)-2-fluorophenyl]amino}phenyl)-3-cyclohexylpropanamide] | 78 | 597 |
| Cc1cc(OCc2ccc(F)cc2)ccc1Nc1ccc(F)c(NC(=O)CCC2CCCCC2)c1 [Compound 121, 3-cyclohexyl-N-[2-fluoro-5-({4-[(4-fluorophenyl)methoxy]-2-methylphenyl}amino)phenyl]propanamide] | 59 | 116 |
| CC(C)c1cc(OCc2ccccc2)ccc1Nc1cccc(OCCCC2CCCCC2)c1 [Compound 119, 4-(benzyloxy)-N-[3-(3-cyclohexylpropoxy)phenyl]-2-(propan-2-yl)aniline] | 104 | 107 |
| Cc1cc(OCc2ccccc2)ccc1Nc1cccc(OCC(=O)O)c1 [Compound 192, 2-(3-{[4-(benzyloxy)-2-methylphenyl]amino}phenoxy)acetic acid] | 66 |  |
| c1ccc(COc2ccc(Nc3cccc(OCCCC4CCCCC4)c3)c(C3CCOCC3)c2)cc1 [Compound 164, 4-(benzyloxy)-N-[3-(3-cyclohexylpropoxy)phenyl]-2-(oxan-4-yl)aniline] |  | 1320 |
| CC(C)CCc1nc(-c2cccc(Nc3ccc(OCc4ccccn4)cc3C3CC3)c2)no1 [Compound 127, 2-cyclopropyl-N-{3-[5-(3-methylbutyl)-1,2,4-oxadiazol-3-yl]phenyl}-4-[(pyridin-2-yl)methoxy]aniline] |  | 148 |
| Cc1cc(OCc2ccc(OC(F)(F)F)cc2)ccc1Nc1cccc(NC(=O)CCC2CCCCC2)c1 [Compound 153, 3-cyclohexyl-N-{3-[(2-methyl-4-{[4-(trifluoromethoxy)phenyl]methoxy}phenyl)amino]phenyl}propanamide] |  | 809 |
| CC(C)(C)OC(=O)N1CCN(C(=O)c2cccc(Nc3ccc(OCc4ccccn4)cc3C3CC3)c2)CC1 [Compound 134, tert-butyl 4-[3-({2-cyclopropyl-4-[(pyridin-2-yl)methoxy]phenyl}amino)benzoyl]piperazine-1-carboxylate] |  | 281 |
